# Reference: US6605634B2 (Amgen, Inc., priority 1996, dated 2003)
# Test system: production of tumor necrosis factor (TNF) by monocytes activated with bacterial lipopolysaccharide (LPS)
# Assay: Lipopolysaccharide-activated Monocyte TNF Production Assay
# Format: cell-based
# Settings: Homo sapiens, TNF in culture supernatants by ELISA, read-out: IC50 (concentration of test compounds causing a 50% reduction in TNF production)
# Procedure: Lipopolysaccharide-activated Monocyte TNF Production Assay
# Test compounds were evaluated in vitro for the ability to inhibit the production of tumor necrosis factor (TNF) by monocytes activated with bacterial lipopolysaccharide (LPS). Fresh residual source leukocytes (a byproduct of plateletpheresis) were obtained from the local blood bank and peripheral blood mononuclear cells (PBMCs) were isolated by density gradient centrifugation on Ficol-Paque Plus (Pharmacia). PBMCs were suspended at 2×10^6/ml in DMEM supplemented to contain 2% FCS (10 mM), 0.3 mg/ml glutamate, 100 U/ml penicillin G and […] streptomycin sulfate (complete media). Cells were plated into Falcon flatbottom 96 well culture plates (200 μl/well) and cultured overnight at 37° C. and 6% CO2. Nonadherent cells were removed by washing with 200 μl/well of fresh medium. Wells containing adherent cells (˜70% monocytes) were replenished with 100 μl of fresh medium.
# Preparation of Test Compound Stock Solutions
# Test compounds were dissolved in […]. Compound stock solutions were prepared to an initial concentration of […]. Stocks were diluted initially to 20-200 μM in complete media. Nine two-fold serial dilutions of each compound were then prepared in complete medium.
# Treatment of Cells with Test Compounds and Activation of TNF Production with Lipopolysaccharide
# One hundred microliters of each test compound dilution were added to microtiter wells containing adherent monocytes and 100 μl complete medium. Monocytes were cultured with test compounds for 60 min at which time 25 μl of complete medium containing 30 ng/ml lipopolysaccharide from E. coli K532 were added to each well. Cells were cultured an additional 4 hrs. Culture supernatants were then removed and TNF present in the supernatants was quantified using an ELISA.
# Flat bottom 96 well Coming High Binding ELISA plates were coated overnight (4° C.) with 150 μL/well of 3 μg/ml murine anti-human TNFa MAb (R&D Systems #MAB210). Wells were then blocked 1 h at room temperature with 200 μL/well of CaCl2-free ELISA buffer supplemented to contain 20 mg/ml BSA (standard ELISA buffer: […], 150 mM NaCl, 2 mM CaCl2, 0.15 mM thimerosal, pH 7.4). Plates were washed and replenished with 100 μl of test supernatants (diluted 1:3) or standards. Standards consisted of eleven 1.5-fold serial dilutions from a stock of 1 ng/ml recombinant human TNF (R&D Systems). Plates were incubated at room temperature for 1 h on orbital shaker (300 rpm), washed and replenished with 100 μl/well of 0.5 jig/ml goat anti-human TNFa (R&D systems #AB-210-NA) biotinylated at a 4:1 ratio. Plates were incubate for 40 min, washed and replenished with 100 μl/well of alkaline phosphatase-conjugated streptavidin (Jackson ImmunoResearch #016-050-084) at 0.02 μg/ml. Plates were incubated 30 min, washed and replenished with 200 μl well of 1 mg/ml of p-nitrophenyl phosphate. After 30 min, plates were read at 405 nm on a Vmax plate reader.
# Standard curve data were fit to a second order polynomial and unknown TNF-a concentrations determined from their OD by solving this equation for concentration. TNF concentrations were then plotted Vs test compound concentration using a second order polynomial. This equation was then used to calculate the concentration of test compounds causing a 50% reduction in TNF production.
row,Structure (SMILES),IC50
1,"Fc1ccc(-c2[nH]c3nc(NCc4cccs4)ccc3c2-c2ccncc2)cc1 [Compound 154, 6-(2′-thienylmethylamino)-3-(4-pyridyl)-2-(4-fluorophenyl)-7-aza-indole]",< 20 µM
2,"CN[C@@H](C)C(=O)Nc1ccc2c(-c3ccncc3)c(-c3ccc(F)cc3)[nH]c2n1 [Compound 127, 6-(1′-oxo-2′S-N-methylaminopropylamino)-3-(4-pyridyl)-2-(4-fluorophenyl)-7-aza-indole]",< 1 µM
3,"CC(C)[C@H](N)C(=O)Nc1ccc2c(-c3ccncc3)c(-c3ccc(F)cc3)[nH]c2n1 [Compound 73, 6-(3′-Methyl-1′-oxo-2′-aminobutylamino)-3-(4-pyridyl)-2-(4-fluorophenyl)-7-aza-indole]",< 20 µM
4,"[N-]=[N+]=Nc1ccc(C[C@H](N)C(=O)Nc2ccc3c(-c4ccncc4)c(-c4ccc(F)cc4)[nH]c3n2)cc1 [Compound 135, 6-(3′-(4-azidophenyl)-1′-oxo-2′S-aminopropylamino)-3-(4-pyridyl)-2-(4-fluorophenyl)-7-aza-indole]",< 20 µM
5,"N[C@@H](C(=O)Nc1ccc2c(-c3ccncc3)c(-c3ccc(F)cc3)[nH]c2n1)c1ccccc1 [Compound 117, 6-(2′-phenyl-1′-oxo-2′R-aminoethylamino)-3-(4-pyridyl)-2-(4-fluorophenyl)-7-aza-indole]",< 1 µM
6,"CC(=O)Nc1ccc2c(-c3ccncc3)c(-c3ccc(F)cc3)[nH]c2n1 [Compound 94, 6-(1′-oxo-ethylamino)-3-(4-pyridyl)-2-(4-fluorophenyl)-7-aza-indole]",< 20 µM
7,"CC(C)(C)C[C@H](N)C(=O)Nc1ccc2c(-c3ccncc3)c(-c3ccc(F)cc3)[nH]c2n1 [Compound 75, 6-(4′,4′-Dimethyl-1′-oxo-2′-aminopentylamino)-3-(4-pyridyl)-2-(4-fluorophenyl)-7-aza-indole]",< 20 µM
8,"NC(=O)NCCC[C@H](N)C(=O)Nc1ccc2c(-c3ccncc3)c(-c3ccc(F)cc3)[nH]c2n1 [Compound 65, 6-(5′-ureido-1′-oxo-2′-aminopentylamino)-3-(4-pyridyl)-2-(4-fluorophenyl)-7-aza-indole]",< 20 µM
9,"NC(Cc1ccccc1)C(=O)Nc1ccc2c(-c3ccncc3)c(-c3ccc(F)cc3)[nH]c2n1 (racemic) [Compound 87, 6-(3′-phenyl-1′-oxo-2′-D,L-aminopropylamino)-3-(4-pyridyl)-2-(4-fluorophenyl)-7-aza-indole]",< 20 µM
10,"N[C@H](CCc1ccccc1)C(=O)Nc1ccc2c(-c3ccncc3)c(-c3ccc(F)cc3)[nH]c2n1 [Compound 141, 6-(4′-phenyl-1′-oxo-2′-(D)-aminobutylamino)-3-(4-pyridyl)-2-(4-fluorophenyl)-7-aza-indole]",< 20 µM
11,"NCC(=O)Nc1ccc2c(-c3ccncc3)c(-c3ccc(F)cc3)[nH]c2n1 [Compound 92, 6-(2′-amino-1′-oxo-ethylamino)-3-(4-pyridyl)-2-(4-fluorophenyl)-7-aza-indole]",< 1 µM
12,"C[C@@H](N)C(=O)Nc1ccc2c(-c3ccncc3)c(-c3ccc(F)cc3)[nH]c2n1 [Compound 131, 6-(1′-oxo-2′R-aminopropylamino)-3-(4-pyridyl)-2-(4-fluorophenyl)-7-aza-indole]",< 1 µM
13,"N[C@@H](Cc1cnc[nH]1)C(=O)Nc1ccc2c(-c3ccncc3)c(-c3ccc(F)cc3)[nH]c2n1 [Compound 113, 6-(L-histidinylamino)-3-(4-pyridyl)-2-(4-fluorophenyl)-7-aza-indole]",< 20 µM
14,"CC(C)(C)OC(=O)NCCCC[C@H](NC(=O)OC(C)(C)C)C(=O)Nc1ccc2c(-c3ccncc3)c(-c3ccc(F)cc3)[nH]c2n1 [Compound 66, 6-(6′-t-butoxycarbonylamino-1′-oxo-2′-t-butoxycarbonylaminohexylamino)-3-(4-pyridyl)-2-(4-fluorophenyl)-7-aza-indole]",< 20 µM
15,"NCCC[C@H](N)C(=O)Nc1ccc2c(-c3ccncc3)c(-c3ccc(F)cc3)[nH]c2n1 [Compound 69, 6-(5′-amino-1′-oxo-2′-aminopentylamino)-3-(4-pyridyl)-2-(4-fluorophenyl)-7-aza-indole]",< 20 µM
16,"Nc1ccc2c(-c3ccncc3)c(-c3ccc(F)cc3)[nH]c2n1 [Compound 17, 6-Amino-3-(4-pyridyl)-2-(4-fluorophenyl)-7-aza-indole]",< 1 µM

row,Structure (SMILES),IC50
1,"N[C@@H](Cc1ccc(O)cc1)C(=O)Nc1ccc2c(-c3ccncc3)c(-c3ccc(F)cc3)[nH]c2n1 [Compound 89, 6-(3′-(4-hydroxyphenyl)-1′-oxo-2′-aminopropylamino)-3-(4-pyridyl)-2-(4-fluorophenyl)-7-aza-indole]",< 1 µM
2,"CC(C)(C)CNc1ccc2c(-c3ccncc3)c(-c3ccc(F)cc3)[nH]c2n1 [Compound 151, 6-(2′,2′-dimethylpropylamino)-3-(4-pyridyl)-2-(4-fluorophenyl)-7-aza-indole]",< 20 µM
3,"Cn1c(-c2ccc(F)cc2)c(-c2ccncc2)c2ccc(NC(=O)CN)nc21 [Compound 158, 6(2′-amino-1′-oxo-ethylamino)-3-(4-pyridyl)-2-(4-fluorophenyl)-1-methyl-7-aza-indole]",< 20 µM
4,"CC(C)COC(=O)n1c(-c2ccc(F)cc2)c(-c2ccncc2)c2ccc(NC(=O)CN)nc21 [Compound 143, 6-(2′-amino-1′-oxo-ethylamino)-3-(4-pyridyl)-2-(4-fluorophenyl)-1-isobutoxycarbonyl-7-aza-indole]",< 20 µM
5,"CCNc1ccc2c(-c3ccncc3)c(-c3ccc(F)cc3)[nH]c2n1 [Compound 156, 6-(ethylamino)-3-(4-pyridyl)-2-(4-fluorophenyl)-7-aza-indole]",< 20 µM
6,"CCCCC(CC)CNc1ccc2c(-c3ccncc3)c(-c3ccc(F)cc3)[nH]c2n1 (racemic) [Compound 148, 6-(2′(R,S)-ethylhexylamino)-3-(4-pyridyl)-2-(4-fluorophenyl)-7-aza-indole]",< 20 µM
7,"C[S+]([O-])CC[C@H](N)C(=O)Nc1ccc2c(-c3ccncc3)c(-c3ccc(F)cc3)[nH]c2n1 (stereo partly shown) [Compound 109, 6-(4′-methylsulfoxo-1′-oxo-2′S-aminobutylamino)-3-(4-pyridyl)-2-(4-fluorophenyl)-7-aza-indole]",< 20 µM
8,"Fc1ccc(-c2[nH]c3nccnc3c2-c2ccncc2)cc1 [Compound 99, 3-(4-pyridyl)-2-(4-fluorophenyl)-4,7-diaza-indole]",< 20 µM
9,"CC(CNc1ccc2c(-c3ccncc3)c(-c3ccc(F)cc3)[nH]c2n1)c1ccccc1 (racemic) [Compound 147, 6-(2′(R,S)-phenylpropylamino)-3-(4-pyridyl)-2-(4-fluorophenyl)-7-aza-indole]",< 20 µM
10,"O=C(Nc1ccc2c(-c3ccncc3)c(-c3ccc(F)cc3)[nH]c2n1)C1CCNCC1 [Compound 107, 6-(4′-isonipecotylamino)-3-(4-pyridyl)-2-(4-fluorophenyl)-7-aza-indole]",< 1 µM
11,"CCC(CC)CNc1ccc2c(-c3ccncc3)c(-c3ccc(F)cc3)[nH]c2n1 [Compound 153, 6-(2′-ethylbutylamino)-3-(4-pyridyl)-2-(4-fluorophenyl)-7-aza-indole]",< 20 µM
12,"CN[C@@H](CC(C)C)C(=O)Nc1ccc2c(-c3ccncc3)c(-c3ccc(F)cc3)[nH]c2n1 [Compound 129, 6-(1′-oxo-2′S-N-methyl-4-methyl-2-aminopentylamino)-3-(4-pyridyl)-2-(4-fluorophenyl)-7-aza-indole]",< 20 µM
13,"N[C@@H](Cc1ccccc1)C(=O)Nc1ccc2c(-c3ccncc3)c(-c3ccc(F)cc3)[nH]c2n1 [Compound 125, 6-(3′-phenyl-1′-oxo-2′-(L)-aminopropylamino)-3-(4-pyridyl)-2-(4-fluorophenyl)-7-aza-indole]",< 20 µM
14,"Nc1nc2[nH]c(-c3ccc(F)cc3)c(-c3ccncc3)c2cc1Br [Compound 27, 6-Amino-5-bromo-3-(4-pyridyl)-2-(4-fluorophenyl)-7-aza-indole]",< 20 µM
15,"NCCCCC(=O)Nc1ccc2c(-c3ccncc3)c(-c3ccc(F)cc3)[nH]c2n1 [Compound 77, 6-(5′-amino-1′-oxo-pentylamino)-3-(4-pyridyl)-2-(4-fluorophenyl)-7-aza-indole]",< 20 µM
